The source of these data is PubChem BioAssay AID179 (DTP/NCI, 2004).

Molecules are shown by their SMILES. Several values for one entry are separate records, joined by “and”; a condition that tells them apart may be missing. Equal values may be shown once. Activity calls are given as the source filed them.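 Rule for the calls: active = compounds giving half or more protection of infected cells from virus-caused growth loss, again on retest; inactive = the rest.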 Where a SMILES comes first, the peptide text is derived from it. The star is where a group is joined. Cbz = O=C(OCc1ccccc1)*

The experiment relates to CEM cells HIV-1 protection, formazan growth assay. Nature of the experiment: NCI AIDS Antiviral Assay. To be noted: for IC50: measured here: growth of uninfected CEM cells. In a few lines: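 Steps: treat uninfected and HIV-1-infected human CEM cells at five drug levels; quantify growth by soluble formazan; retest any compound reaching 50% protection; classify actives from the retest.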

For `COc1cc2nncc(SCc3ccc(Cl)c(Cl)c3)c2cc1OC`, the EC50 was greater than 39.8 µM and the IC50 amounted to 4.57 µM.

With `C[n+]1c(-c2ccc(/C=C/C=N\NC(=O)c3ccc(C(=O)N/N=C\C=C\c4ccc(-c5cn6ccccc6[n+]5C)cc4)cc3)cc2)cn2ccccc21`, the EC50 is greater than 9.77 µM and the IC50 was greater than 9.77 µM.

As for `COc1cc(COC(=O)N(CC(=O)O)c2ccccc2)c([N+](=O)[O-])cc1OC`, the EC50 is greater than 646 µM and the IC50 came to 295 µM.

For the compound `S=c1sc2ccccc2n1CN1CCN(Cc2ccccc2)CC1`, the 50% effective concentration (EC50) was greater than 200 µM and the IC50 was greater than 200 µM.

Turning to `C[C@@H]1C[C@@H]2OC(=O)[C@]3(C)[C@H]2[C@@H](OC3(C)O)[C@]2(C)C(=O)C=C[C@@H]12` (some centres not stated), the EC50 was greater than 316 µM and the IC50 was 5.75 µM.

For `O=C(COc1ccc(Cl)cc1)N1N=C(c2ccc([N+](=O)[O-])o2)CC1(O)c1ccccc1` (configuration not stated), the EC50 was greater than 16.2 µM and the IC50 was determined as 2.88 µM.

Turning to `CCCNC1(C(N)=O)CCN(Cc2ccccc2)CC1`, the EC50 is greater than 200 µM and the IC50 is greater than 200 µM.

On to `CNC/C(Cl)=N/S(=O)(=O)c1ccc(C)cc1`, for which the EC50 was greater than 58.9 µM and the half-maximal inhibitory concentration (IC50) was 2.75 µM.

As for `COc1ccc(/C=C/C(=O)c2cc(Cl)cc(Cl)c2O)cc1OC`, the EC50 was greater than 200 µM and the IC50 came out at 1.05 µM.

As for `Nc1ccn(CC(=O)NCCCO)c(=O)n1`, the EC50 was greater than 200 µM and the IC50 was greater than 200 µM.

As to `CCN1C[C@]2(C)CC[C@H](OC)C34C1C([C@H](OC(C)=O)[C@@H]32)[C@@]1(OC)C[C@H](OC)[C@H]2C[C@@H]4[C@@H]1[C@H]2O`, the EC50 is greater than 77.6 µM and the IC50 was greater than 77.6 µM.

In the case of `O=C(O)c1cc(S(=O)(=O)Nc2cc(Cc3cc(NS(=O)(=O)c4ccc(O)c(C(=O)O)c4)c(O)c(C(=O)O)c3)cc(C(=O)O)c2O)ccc1O`, the EC50 is greater than 100 µM and the IC50 is greater than 100 µM.

Regarding `CN(C)c1ncnc2c1ncn2C1OC(CO)C2NP(=O)(N(CCCl)CCCl)OC21` (configuration not stated), the EC50 is greater than 200 µM and the IC50 is greater than 200 µM.

Take `Cc1ccc2c(CC(=O)O)cc(=O)oc2c1C`: the EC50 is greater than 200 µM and the IC50 worked out at 155 µM.

For `Clc1ccc2c(c1)nnn1nccc21`, the EC50 was greater than 35.5 µM and the IC50 was greater than 35.5 µM.

For the compound `N#CCCN1C(=O)CCC2(CCC(=O)N(CCC#N)C2=O)C1=O`, the EC50 is greater than 794 µM and the IC50 is greater than 794 µM.

Turning to `COCc1c(C(=O)NCCO)[n+](=O)c2ccccc2n1[O-]`, the EC50 is greater than 87.1 µM and the IC50 was greater than 87.1 µM.

As to `CCOC(=O)c1ccc(N=C2S/C(=C\C(=S)Nc3ccccc3)N(c3ccccc3)C2=Nc2ccc(C(=O)OCC)cc2)cc1`, the EC50 is greater than 200 µM and the IC50 is greater than 200 µM.

Consider `COC(=O)C1=C(OC)C(C(=O)OC)[C@@]2(C)C(C(=O)OC)=C(OC)C(C(=O)OC)[C@@]12C` (some centres not stated), for which the EC50 is greater than 417 µM and the IC50 is greater than 417 µM.

As to `[O-][n+]1onc2c1-c1nonc1CC2`, the EC50 is greater than 200 µM and the IC50 was 26.9 µM.

Consider `COc1ccc(-c2c(C#N)c(N)n(C3OCC(OC(C)=O)C(OC(C)=O)C3OC(C)=O)c(=S)c2C#N)cc1` (configuration not stated), for which the EC50 was greater than 200 µM; the IC50 was 20.9 µM and 29.5 µM.

For the compound `CSc1ccn(C2CC(F)C(CO)O2)c(=O)n1` (configuration not stated), the EC50 was 42.7 µM and the IC50 is greater than 200 µM.

As to `COc1cc(SSc2ccc(N)c(OC)c2)ccc1N`, the EC50 is greater than 200 µM and the IC50 was 26.3 µM.

In the case of `CCCCOC(=O)OC1CCC2(C)CC3CCC2(OO3)C1(C)C` (configuration not stated), the EC50 is greater than 200 µM and the IC50 came to 0.977 µM.

Take `CC(C)CC(NC(=O)c1cccc(O)c1O)C(=O)NCc1cc(CNC(=O)C(CC(C)C)NC(=O)c2cccc(O)c2O)cc(CNC(=O)C(CC(C)C)NC(=O)c2cccc(O)c2O)c1` (configuration not stated): the result was inactive.

Turning to `CCN(CC)/[N+]([O-])=N/OS(=O)(=O)N(C)C`, the EC50 is greater than 200 µM and the IC50 is greater than 200 µM.

In the case of `CN1c2ccccc2N=Cc2c1oc1ccc3ccccc3c1c2=O`, the EC50 is 46.8 µM and the IC50 came out at 50.1 µM.

With `ClCCC1OC(CCCl)OC(CCCl)O1` (configuration not stated), the EC50 is greater than 200 µM and the IC50 was greater than 200 µM.

For the compound `Cn1c(N)c(N=Nc2ccc(S(=O)(=O)Nc3ncccn3)cc2)c(=O)n(C)c1=O`, the EC50 is greater than 200 µM and the IC50 was greater than 200 µM.

For `C(/Cc1ccc2c(c1)OCO2)=N\NC1=NCCCCN1`, the EC50 was greater than 200 µM and the IC50 was 105 µM.

As to `CCCCc1c2c(nc3c1CCc1cc(C=O)c(N)nc1-3)/C(=C/c1ccccc1)CCC2`, the EC50 is greater than 4.37 µM and the IC50 is greater than 4.37 µM.

For `COc1cccc2c1C(=O)c1c(O)c3c(c(O)c1C2=O)C[C@@](O)(C(=O)CO)C[C@@H]3OC1CC(N)C(OC)C(C)O1` (some centres not stated), the EC50 is greater than 0.2 µM and the IC50 is 0.0195 µM.

Take `CC(=O)N1C(=O)/C(=C\C(=O)c2ccc(Cl)cc2)c2ccccc21`: the EC50 is greater than 100 µM and the IC50 stood at 1.48 µM.

Consider `C#CCOC(=O)c1ccccc1O`, for which the EC50 is greater than 200 µM and the IC50 was greater than 200 µM.

Regarding `O=C1NC(=O)C(=Cc2ccc(-c3ccccc3)cc2)C(=O)N1`, the EC50 was greater than 24.5 µM and the IC50 was greater than 24.5 µM.

As for `COC12[C@@H]3N[C@@H]3CN1C1=C(C(=O)C(NCCSSCCNC3=C(C)C(=O)C4=C(C3=O)C(COC(N)=O)[C@]3(OC)C5N[C@@H]5CN43)=C(C)C1=O)[C@@H]2COC(N)=O` (some centres not stated), the EC50 was greater than 200 µM and the IC50 came to 0.0631 µM.

On to `COc1ccccc1NC(=O)C(=O)C(c1cnc2ccc([N+](=O)[O-])cc2n1)[N+](=O)[O-]` (configuration not stated), for which the EC50 was greater than 316 µM and the IC50 worked out at 89.1 µM.

Consider `Cc1ccc(/C=C2\NC(=S)N(CN3CCOCC3)C2=O)cc1`, for which the EC50 is greater than 200 µM and the IC50 was 45.7 µM.

As for `CC(=O)O[C@]12CCCCCCC1C1(O)C(O)CCC[C@H]12` (some centres not stated), the EC50 is greater than 200 µM and the IC50 was greater than 200 µM.

For `C[n+]1c(-c2ccc(/C=N/NC(=O)C(=O)N/N=C/c3ccc(-c4cn5ccccc5[n+]4C)cc3)cc2)cn2ccccc21`, the EC50 is 56.2 µM and > 200 µM; the IC50 is 74.1 µM and > 200 µM.

In the case of `Cc1nc2ccc(Cl)cc2c2c1CCS2`, the EC50 is greater than 200 µM and the IC50 was found to be 117 µM.

Consider `S=C1CSc2c(ccc3ccccc23)N1`, for which the EC50 was greater than 200 µM and the IC50 is 141 µM.

Take `O=C(OC(C(=O)O)C(OC(=O)c1ccccc1)C(=O)O)c1ccccc1` (configuration not stated) (tested in a mixture with another compound): the EC50 was greater than 380 µM and the IC50 amounted to 0.912 µM.

Take `C=CCP(=O)(c1ccccc1)c1ccccc1`: the EC50 is 0.0631 µM and the IC50 is greater than 200 µM.

Take `CC1=CC(Nc2ccc(S(=O)(=O)c3ccc(NC4=NCCNC(C)=C4)cc3)cc2)=NCCN1`: the EC50 was greater than 200 µM and the IC50 was greater than 200 µM.

For `CC12CCC(C(Br)C1=O)C2(C)CS(=O)(=O)O` (configuration not stated), the EC50 was greater than 200 µM and the IC50 is greater than 200 µM.

As to `CC(C)C1OC23CCCCC2C(C#N)(C#N)C1(C#N)C(=N)O3` (configuration not stated), the EC50 is greater than 200 µM and the IC50 was 5.89 µM.

With `c1ccc2c(c1)Nc1ccccc1O2`, the EC50 was greater than 97.7 µM and the IC50 stood at 23.4 µM.

Take `O=C(C=Nc1ccccc1C(=O)[O-])c1cccs1.O=C(C=Nc1ccccc1C(=O)[O-])c1cccs1.[Ni+2]`: the outcome was inactive.

With `CCCCCSP(=S)(C(C)C)C(C)C`, the EC50 is greater than 200 µM and the IC50 was found to be 115 µM.

Consider `C=C(C)[C@@]1(O)O[C@H]2C[C@@]3(C)OC(=CC3=O)/C(C)=C\[C@@H]3OC(=O)[C@@]1(C)[C@H]32`, for which the EC50 was greater than 200 µM and the IC50 stood at 5.25 µM.

For `COP(=O)(OC)C(C)(C)NC(=O)NC(F)(F)F`, the EC50 is greater than 200 µM and the IC50 was greater than 200 µM.

As for `COC(=O)C(CC(C)C)NC(=O)C(CCCN=C(N)N)NC(=O)OCc1ccccc1` (stereo not drawn) (Cbz-Arg-Leu-OMe; configuration not given here), the EC50 is greater than 200 µM and the IC50 was greater than 200 µM.

`CCNC1C2(CCCCC2)NC(=O)C12CCCCC2` (configuration not stated): the result was inactive.

`Oc1ccc2c(c1)OCC1(O)Cc3cc(O)c(O)cc3C21` (configuration not stated): the outcome was inactive.

With `COc1ccc(CNc2nc3cc(C(F)(F)F)ccc3nc2C(=O)O)cc1OC`, the EC50 is greater than 200 µM and the IC50 amounted to 66.1 µM.

On to `Cc1ccc(S(=O)(=O)SCCN)cc1`, for which the EC50 was greater than 115 µM and the IC50 is greater than 100 µM.

For `C[C@]12CC[C@H](OC(=O)Cc3ccc(N(CCCl)CCCl)cc3)CC1CC[C@@H]1C2CC[C@]2(C)NC(=O)CCC12` (some centres not stated), the EC50 was greater than 17.8 µM and the IC50 was 2.95 µM.

As to `COc1cc2c(c(Oc3ccc(C)cc3)c1)CN(C)CC2`, the EC50 is greater than 200 µM and the IC50 is 75.9 µM.

For the compound `CC(=O)NC(CCC(=O)c1ccc(Cl)cc1)C(=O)O` (configuration not stated), the EC50 is greater than 200 µM and the IC50 was greater than 200 µM.

For `C=CCCC(=O)C(Cc1ccccc1OC)C(=O)OC` (configuration not stated), the EC50 is greater than 129 µM and the IC50 was greater than 129 µM.

For the compound `COc1ccc(Br)c(C=Nc2cccc3cc(OC)c(OC)cc23)c1`, the result was inactive.

Take `CCOC(=O)[C@H]1Nc2ccc([N+](=O)[O-])cc2C2c3ccccc3CC21` (some centres not stated): the EC50 is greater than 11.2 µM and the IC50 is greater than 11.2 µM.

`COc1ccc2cc1Oc1ccc(cc1)C[C@H]1c3cc(c(OC)cc3CCN1C)Oc1c(OC)c(OC)cc3c1[C@H](C2)N(C)CC3`: the EC50 was greater than 21.9 µM, the result was inactive and the IC50 amounted to 12.3 µM.

Regarding `S=c1nc2sc3c(c2c(Nc2ccc(Cl)cc2)[nH]1)CCCC3`, the EC50 is 43.7 µM and the IC50 was found to be 132 µM.

Turning to `O=c1c2cc([N+](=O)[O-])ccc2n2n1CCCC2`, the EC50 is greater than 200 µM and the IC50 was greater than 200 µM.

Take `CC1=N/C(=C\c2ccc(C#N)cc2)C(=O)O1`: the EC50 is greater than 123 µM and the IC50 is greater than 123 µM.

For the compound `O=C(O)/C=C/n1c2ccccc2c(=O)c2ccccc21`, the EC50 was greater than 70.8 µM and the concentration for half-maximal inhibition (IC50) is greater than 70.8 µM.
